# According to US11510931B2, “Compositions and methods for treating ophthalmic conditions” (MEDICON PHARMACEUTICALS, INC., priority 2016, dated 2022):
# Columns and labels:
# [1] = system: IL-6; experiment: IL-6 in culture medium of human conjunctival cells (ELISA); type: cell-based
# Method: Cells were treated with PS 1×IC50 and 2 h later TNF-α was added to the medium to a final concentration of 10 ng/ml. Culture media were harvested 24 h later and the levels of TGF-β, IL-6 and IL-8 were determined by ELISA. Of note, the levels of IL-1β were below the limit of detection.
# [2] = system: PGE2; experiment: PGE2 levels in tears and cornea of rabbits by ELISA; type: in vivo, rabbit
# Method: The effects of PS, ketorolac and dicofenac (the latter two ophthalmic NSAIDs known to induce corneal melt) on the tear levels of PGE2 in rabbits with concanavalin A-induced dry eye were compared. Three eye drops of PS 1.5% or of commercially available ketorolac 0.5% were given at 0 time, and 1 h later to rabbits with concanavalin A-induced DED. Tears were obtained at 2 h and the levels of PGE2 were determined by ELISA. PGE2 in tears of naïve rabbits (not exposed to concanavalin A nor treated) was also measured. The PGE2 levels (mean±SEM) were: Naïve, 110.4±12.6 ng/ml; PS-treated, 115.4±15.8 ng/ml; Ketorolac-treated, 77.7±8.7 ng/ml. The difference in PS vs. ketorolac was significant, p<0.02; as was the difference in ketorolac vs naïve, p<0.03. Regarding this parameter, PS differs radically form ketorolac, which induces corneal melt.
# Levels of PGE2 in the corneas of three groups of rabbits were determined by ELISA. Rabbits were treated with PS 1.6% or ketorolac 0.5% eye drops topically applied to their eyes or were not treated (naïve group). Results in pg/mg protein (mean±SEM). Naïve=787.3±96.3; PS=880.6±110.3; Ketrolorac=247.2±187.4 (p<0.01 vs PS).
# Rabbits with DED induced by concanavalin A as above were treated for 6 days with vehicle, or PS 2.3% or ketorolac 0.5% or diclofenac 0.1%. Compared to the vehicle group, on day 6 the PGE2 levels in the cornea were 106% of the vehicle value in the PS group (not a statistically significant difference), 1.3% in the ketorolac group (p<0.0001 vs. vehicle, and 2.3% in the diclofenac group (p<0.0001 vs. vehicle).
# It was determined that the levels of PGE2 in rabbit tears in three groups of rabbits, naïve and those with Con A-induced DED that were treated for 1 week either with PS or vehicle.
# In an acute experiment, administered once topically to the eyes of four groups of rabbits with Con A-induced DED was one of the following: vehicle, PS, ketorolac or diclofenac; the latter two are NSAIDs used for the treatment of ocular inflammation and pain. It was determined that the levels of PGE2 in the cornea of these rabbits obtained 1 h later as well as in the corneas of naïve rabbits.
# [3] = system: TGF-β; experiment: TGF-β in culture medium of human conjunctival cells (ELISA); type: cell-based
# Method: Culture media were harvested 24 h later and the levels of TGF-β, IL-6 and IL-8 were determined by ELISA. Of note, the levels of IL-1β were below the limit of detection.
# [4] = Biodistribution of PS in porcine eyes (ex vivo); type: in vitro ADME, pig; conditions: porcine eye ex vivo, 2% PS nanoparticle solution
# Description: Biodistribution of PS in porcine eyes (ex vivo): Explanted pig eyes were exposed to PS nanoparticle solution (PS concentration was 2%) and treated as were the human eyes.
# [5] = Biodistribution of PS in human eyes (ex vivo); type: in vitro ADME; conditions: human eye ex vivo, 10 min contact, 60 min incubation
# Method: Biodistribution of PS in human eyes (ex vivo): Human cadaveric eyes were obtained through the Lions Eye Bank for Long Island, Valley Stream, NY. They were preserved on ice and used within 2 h from removal from the donors.
# The anterior surface of the human eye (corresponding to an area slightly larger than the palpebral fissure) was brought into direct contact with a PS HP-β-CD solution (PS concentration at 0.5%, 2.0% and 3.3%) and incubated for 10 min at 37° C. The eye was then rinsed with 10% dimethylsulfoxide (DMSO) to remove residual PS from the surface of the eye and incubated in PBS for 60 min. […] At the specified times, ocular tissues were dissected and PS levels determined by HPLC. The Table below summarizes the findings.
# [6] = system: cataract surgery plus LPS-induced ocular inflammation in rabbits; experiment: Ocular inflammation after cataract surgery plus intravitreal LPS in rabbits; type: in vivo, rabbit; conditions: PS 3.5% in nanoparticles
# Method: The anti-inflammatory effect of PS in New Zealand white rabbits was evaluated following cataract surgery and administration of the proinflammatory bacterial lipopolysaccharide (LPS). Briefly, the lens was removed by phacoemulsification and aspiration and replaced with the hydrophobic acrylic intraocular lens (AR40e, AMO). Upon completion of the operation, 1 μg of LPS dissolved in 10 μl PBS was injected into the vitreous to induce uveitis.
# Rabbits were treated with PS 3.5% formulated in nanoparticles or vehicle (nanoparticles without PS) applied topically as eye drops three times per day. The first application was made within 1 h after completion of surgery. The rabbits were examined daily and the aqueous humor (AH) was sampled by needle aspiration on days 1, 3, and 5 following the injection of LPS. The number of infiltrating cells in the AH was determined following standard methods. On day 5, the rabbits were euthanized and the implanted lens was removed and fixed in 2.5% glutaraldehyde and the number of inflammatory cells attached to the lens was examined under a dissecting microscope.
# [7] = TNF-α-stimulated, PS 1×IC50, media at 24 h
# [8] = exposure/incubation 1/15 min/min
# [9] = exposure/incubation 1/60 min/min
# [10] = exposure/incubation 10/15 min/min
# [11] = exposure/incubation 10/60 min/min
smiles,measurement,setting,value
"CCOP(=O)(OCC)OCCCCOC(=O)CC1=C(C)/C(=C/c2ccc([S+](C)[O-])cc2)c2ccc(F)cc21 (stereo not drawn) [PS, phosphosulindac]",IL-6 reduction,[1]; [7],95%
same,IL-6 reduction,"[1]; unstimulated levels, PS 1×IC50",84%
same,PGE2 levels in tears,"[2]; Con A DED rabbits treated for 1 week, FIG. 9A",slightly lower than (but not significantly different from) those of naïve rabbits
same,PGE2 levels in the cornea,"[2]; Con A DED rabbits, administered once topically, 1 h later, FIG. 9B",no different than those of vehicle-treated and naïve rabbits
same,"PGE2 levels in the cornea, % of the vehicle value","[2]; Con A DED rabbits, day 6, PS 2.3%, ketorolac 0.5%, diclofenac 0.1%",106%
same,PGE2 levels in tears,"[2]; Con A DED rabbits, three eye drops at 0 and 1 h, tears at 2 h, PS 1.5%, ketorolac 0.5%, mean±SEM",115.4 ± 15.8 ng/mL
same,PGE2 levels in the corneas,"[2]; rabbits, PS 1.6% or ketorolac 0.5% eye drops, mean±SEM",880.6±110.3 pg/mg protein
same,TGF-β reduction,[3]; [7],19%
same,TGF-β reduction,"[3]; unstimulated levels, PS 1×IC50, not statistically significant",4.7%
same,PS in Cornea,[4]; [8],51.5 µM
same,PS in Lens,[4]; [8],9.5 µM
same,PS in Sclera,[4]; [8],86.6 µM
same,PS in Cornea,[4]; [9],99.8 µM
same,PS in Lens,[4]; [9],4.8 µM
same,PS in Sclera,[4]; [9],123.9 µM
same,PS in Cornea,[4]; [10],97.1 µM
same,PS in Lens,[4]; [10],1.9 µM
same,PS in Sclera,[4]; [10],89.9 µM
same,PS in Cornea,[4]; [11],170.6 µM
same,PS in Lens,[4]; [11],2.1 µM
same,PS in Sclera,[4]; [11],47.9 µM
same,PS in Aqueous,[5]; 0.5% PS HP-β-CD solution,2.4 µM
same,PS in Choroid,[5]; 0.5% PS HP-β-CD solution,28.5 µM
same,PS in Cornea,[5]; 0.5% PS HP-β-CD solution,187.2 µM
same,PS in Iris,[5]; 0.5% PS HP-β-CD solution,25.6 µM
same,PS in Lens,[5]; 0.5% PS HP-β-CD solution,0.6 µM
same,PS in Retina,[5]; 0.5% PS HP-β-CD solution,2.9 µM
same,PS in Sclera,[5]; 0.5% PS HP-β-CD solution,381.3 µM
same,PS in Vitreous,[5]; 0.5% PS HP-β-CD solution,0.3 µM
same,PS in Cornea,[5]; 2.0% PS HP-β-CD solution,397.7 µM
same,PS in Iris,[5]; 2.0% PS HP-β-CD solution,34.2 µM
same,PS in Lens,[5]; 2.0% PS HP-β-CD solution,1.4 µM
same,PS in Retina,[5]; 2.0% PS HP-β-CD solution,38.7 µM
same,PS in Sclera,[5]; 2.0% PS HP-β-CD solution,870.9 µM
same,PS in Aqueous,[5]; 3.3% PS HP-β-CD solution,19.5 µM
same,PS in Choroid,[5]; 3.3% PS HP-β-CD solution,261.4 µM
same,PS in Cornea,[5]; 3.3% PS HP-β-CD solution,266.4 µM
same,PS in Iris,[5]; 3.3% PS HP-β-CD solution,169.3 µM
same,PS in Lens,[5]; 3.3% PS HP-β-CD solution,1.9 µM
same,PS in Retina,[5]; 3.3% PS HP-β-CD solution,48.5 µM
same,PS in Sclera,[5]; 3.3% PS HP-β-CD solution,"2,596.6 μM"
same,PS in Vitreous,[5]; 3.3% PS HP-β-CD solution,4.3 µM
same,ocular inflammation (clinical appearance),"[6]; eye drops three times per day, first 24 h of treatment, FIG. 13",essentially eliminated
same,number of inflammatory cells in aqueous humor (AH),"[6]; day 3, eye drops three times per day, FIG. 14",< 70000 mL⁻¹
same,inflammatory cells attached to the implanted lens,[6]; day 5,very few or no cells
